# Test system: H2122 cells
# Assay: CRISPR/Cas9 synthetic lethal screen with TNO155 alone
# Assay type: cell-based, human
# Details: for neg|lfc: H2122 cells; for neg|score / pos|lfc: H2122
smiles,measurement,setting,value
C[C@@H]1OCC2(CCN(c3cnc(Sc4ccnc(N)c4Cl)c(N)n3)CC2)[C@@H]1N [TNO155],neg|lfc,AATF knockout,−0.9199
same,neg|lfc,ABT1 knockout,−1.0094
same,neg|lfc,ADAT3 knockout,−1.2793
same,neg|score,ADSL knockout,0.0007395
same,neg|lfc,ADSS knockout,−1.8117
same,neg|score,ANAPC2 knockout,0.0008681
same,neg|lfc,ARIH1 knockout,−1.1405
same,neg|score,ASF1A knockout,0.0009774
same,neg|score,ASH2L knockout,0.000721
same,neg|lfc,ATP5B knockout,−1.2287
same,neg|lfc,ATP6V0B knockout,−1.1768
same,neg|score,ATP6V1D knockout,0.0008813
same,neg|score,ATP6V1E1 knockout,0.0009389
same,neg|lfc,ATRX knockout,−1.7393
same,neg|lfc,AURKA knockout,−1.3711
same,neg|lfc,BCAS2 knockout,−0.7436
same,neg|score,BCCIP knockout,0.0009424
same,neg|score,C7orf26 knockout,0.0008313
same,neg|score,C12orf45 knockout,0.0008272
same,neg|score,C16orf59 knockout,0.0007587
same,neg|score,C16orf80 knockout,0.000879
same,neg|score,C17orf70 knockout,0.0008636
same,neg|lfc,CCDC115 knockout,−1.2834
same,neg|score,CCDC174 knockout,0.0007499
same,neg|lfc,CEBPZ knockout,−1.2677
same,neg|score,CENPL knockout,0.000924
same,neg|lfc,CHMP6 knockout,−1.2891
same,neg|score,CLP1 knockout,0.000693
same,neg|lfc,CNOT7 knockout,−0.9274
same,neg|score,COPS4 knockout,0.0009634
same,neg|lfc,COPS5 knockout,−1.8379
same,neg|lfc,COPS8 knockout,−0.9744
same,neg|score,COX10 knockout,0.0009358
same,neg|lfc,COX11 knockout,−0.6679
same,neg|lfc,CSNK2B knockout,−1.5191
same,neg|score,CTNNBL1 knockout,0.0007324
same,neg|score,DCTN1 knockout,0.0008908
same,neg|lfc,DCTN5 knockout,−1.6239
same,neg|lfc,DCTN6 knockout,−1.5775
same,neg|lfc,DDOST knockout,−0.981
same,neg|lfc,DDX52 knockout,−1.1513
same,neg|score,DDX54 knockout,0.0009466
same,neg|score,DGCR8 knockout,0.0008832
same,neg|lfc,DPH5 knockout,−1.0575
same,neg|lfc,DPY30 knockout,−0.7867
same,neg|score,DR1 knockout,0.0008727
same,neg|lfc,DUT knockout,−0.9153
same,neg|lfc,DYNC1I2 knockout,−2.041
same,neg|score,EIF2B1 knockout,0.0008906
same,neg|lfc,EIF2B5 knockout,−1.2117
same,neg|score,EXOC5 knockout,0.0008724
same,neg|lfc,EXOSC8 knockout,−1.0794
same,neg|lfc,FASTKD5 knockout,−0.9103
same,neg|score,FBL knockout,0.0009079
same,neg|score,FBXL5 knockout,0.0009454
same,neg|score,FDX1L knockout,0.0007487
same,neg|lfc,FOXRED1 knockout,−0.9267
same,neg|lfc,FSCN1 knockout,−0.9432
same,neg|lfc,FTSJ3 knockout,−1.5605
same,neg|score,FXN knockout,0.000775
same,neg|lfc,FZD9 knockout,−1.077
same,neg|score,GARS knockout,0.0008542
same,neg|lfc,GEMIN4 knockout,−1.3849
same,neg|score,GINS1 knockout,0.0009186
same,neg|lfc,GSG2 knockout,−1.139
same,neg|lfc,GTF2F2 knockout,−0.9729
same,neg|lfc,GTF3C1 knockout,−1.0865
same,neg|score,GTPBP4 knockout,0.0008361
same,neg|lfc,HEATR2 knockout,−0.6955
same,neg|lfc,HGS knockout,−0.9397
same,neg|lfc,HNF1B knockout,−0.822
same,neg|lfc,HSPA8 knockout,−2.0457
same,neg|score,HSPA14 knockout,0.0009105
same,neg|lfc,IDI1 knockout,−0.7039
same,neg|score,ILF3 knockout,0.0008338
same,neg|lfc,IMP4 knockout,−1.8118
same,neg|score,IPO13 knockout,0.0008689
same,neg|score,IQGAP3 knockout,0.0008176
same,neg|score,JMJD6 knockout,0.0007183
same,neg|lfc,KANSL3 knockout,−1.734
same,neg|score,KBTBD2 knockout,0.0008277
same,neg|score,KDM2A knockout,0.0008953
same,neg|lfc,KIF18A knockout,−1.181
same,neg|score,KRAS knockout,0.0008327
same,neg|lfc,KRR1 knockout,−1.4982
same,neg|score,LSM3 knockout,0.0008487
same,neg|score,LSM5 knockout,0.0007041
same,neg|lfc,LSM12 knockout,−0.7213
same,neg|score,MBTPS1 knockout,0.0007681
same,neg|score,MCAT knockout,0.0009141
same,neg|score,MCM4 knockout,0.000877
same,neg|lfc,MED11 knockout,−1.4228
same,neg|score,MOGAT3 knockout,0.000754
same,neg|score,MRPL11 knockout,0.0007518
same,neg|lfc,MRPL38 knockout,−1.0939
same,neg|lfc,MRPL50 knockout,−1.0478
same,neg|score,MRPS2 knockout,0.0007231
same,neg|score,MRRF knockout,0.0008379
same,neg|score,MTERFD2 knockout,0.0008506
same,neg|score,MTHFD1 knockout,0.0007217
same,neg|score,MYBBP1A knockout,0.0009866
same,neg|lfc,MYBL2 knockout,−0.6253
same,neg|score,NAA10 knockout,0.0008935
same,neg|score,NASP knockout,0.0009277
same,neg|score,NCAPD2 knockout,0.0009387
same,neg|score,NDUFB9 knockout,0.0007395
same,neg|score,NDUFB10 knockout,0.0009074
same,neg|score,NDUFS1 knockout,0.0007194
same,neg|lfc,NDUFS5 knockout,−0.8577
same,neg|lfc,NEDD8 knockout,−2.4196
same,neg|lfc,NIP7 knockout,−0.8825
same,neg|lfc,NLE1 knockout,−1.8629
same,neg|lfc,NME6 knockout,−1.1709
same,neg|lfc,NOL6 knockout,−1.0733
same,neg|score,NOL8 knockout,0.000711
same,neg|lfc,NPLOC4 knockout,−1.2039
same,neg|score,NRF1 knockout,0.0008548
same,neg|lfc,NSMCE2 knockout,−1.577
same,neg|lfc,NUBP1 knockout,−1.2742
same,neg|lfc,OGT knockout,−1.3076
same,neg|score,OR3A2 knockout,0.0009552
same,neg|lfc,PDHA1 knockout,−0.7499
same,neg|lfc,PGGT1B knockout,−0.821
same,neg|lfc,PI4KA knockout,−1.1904
same,neg|score,PNN knockout,0.0007486
same,neg|score,POLD2 knockout,0.0007896
same,neg|score,POLR3A knockout,0.0008536
same,neg|score,PPIL4 knockout,0.000952
same,neg|lfc,PRKRIR knockout,−1.3008
same,neg|score,PRPF19 knockout,0.0007312
same,neg|score,PRPF38B knockout,0.0009555
same,neg|lfc,PSMA6 knockout,−1.9056
same,neg|score,PSMB4 knockout,0.000768
same,neg|lfc,QARS knockout,−1.1752
same,neg|score,RABGGTA knockout,0.0007119
same,neg|lfc,RABIF knockout,−1.3292
same,neg|lfc,RANBP1 knockout,−0.7938
same,neg|lfc,RBM10 knockout,−1.4299
same,neg|lfc,RBM48 knockout,−1.4768
same,neg|score,RBX1 knockout,0.0008383
same,neg|score,RFC2 knockout,0.0008264
same,neg|score,RNASEH1 knockout,0.000903
same,neg|lfc,RNF20 knockout,−0.9142
same,neg|score,RNF168 knockout,0.0008246
same,neg|score,RNPS1 knockout,0.0009345
same,neg|score,RPF2 knockout,0.0009481
same,neg|lfc,RPL7 knockout,−1.3947
same,neg|lfc,RPL18A knockout,−1.5316
same,neg|lfc,RPL35 knockout,−0.8092
same,neg|lfc,RPP30 knockout,−1.2535
same,neg|score,RPS2 knockout,0.0008275
same,neg|lfc,RPS8 knockout,−2.8705
same,neg|lfc,RRM1 knockout,−1.5038
same,neg|score,SASS6 knockout,0.0008932
same,neg|lfc,SKA2 knockout,−1.5851
same,neg|lfc,SLC39A14 knockout,−0.9135
same,neg|score,SMARCB1 knockout,0.0008764
same,neg|score,SOD1 knockout,0.0007147
same,neg|lfc,SRPRB knockout,−0.9129
same,neg|score,SUPT4H1 knockout,0.0007007
same,neg|lfc,SUZ12 knockout,−0.9357
same,neg|lfc,TARDBP knockout,−1.4541
same,neg|lfc,TBCA knockout,−1.4702
same,neg|lfc,TBP knockout,−1.6473
same,neg|lfc,TFB1M knockout,−0.9751
same,neg|score,TFDP1 knockout,0.0007958
same,neg|score,TIMM13 knockout,0.0007917
same,neg|score,TMEM130 knockout,0.0009518
same,neg|score,TNPO3 knockout,0.0009376
same,neg|score,TRIT1 knockout,0.0007446
same,neg|lfc,TSR1 knockout,−1.335
same,neg|score,TTC27 knockout,0.0008097
same,neg|score,TTI1 knockout,0.0008319
same,neg|score,TUBE1 knockout,0.0008874
same,neg|score,TUT1 knockout,0.0008619
same,neg|lfc,TXNL4A knockout,−1.8929
same,neg|score,TYMS knockout,0.0007567
same,neg|lfc,UBC knockout,−1.0724
same,neg|score,UBE2I knockout,0.0008281
same,neg|lfc,UBR4 knockout,−1.0947
same,neg|lfc,UBR5 knockout,−1.3884
same,neg|score,UBTF knockout,0.0007853
same,neg|lfc,UQCRC2 knockout,−1.0409
same,neg|lfc,UTP6 knockout,−2.6455
same,neg|score,UTP20 knockout,0.0007152
same,neg|score,VMA21 knockout,0.000773
same,neg|lfc,VPS18 knockout,−1.3116
same,neg|lfc,VPS53 knockout,−0.6999
same,neg|lfc,VPS72 knockout,−0.5497
same,neg|score,WDHD1 knockout,0.0009781
same,neg|score,WDR3 knockout,0.0009589
same,neg|score,WDR18 knockout,0.0007708
same,neg|lfc,WNK1 knockout,−1.0645
same,neg|score,WRAP53 knockout,0.0007984
same,neg|score,XPR1 knockout,0.000881
same,neg|lfc,XRCC5 knockout,−1.6679
same,neg|score,ZBTB11 knockout,0.0007214
same,neg|lfc,ZCCHC9 knockout,−1.957
same,neg|score,ZNF131 knockout,0.0008989
same,neg|lfc,ZNRD1 knockout,−1.5763
same,pos|lfc,gene ACTB,−1.1591
same,pos|lfc,gene ALG3,−0.5782
same,pos|lfc,gene ANAPC15,−1.2923
same,pos|lfc,gene AP2S1,−1.3206
same,pos|lfc,gene ARID4B,−0.9143
same,pos|lfc,gene BRCA1,−0.6966
same,pos|lfc,gene BUB1B,−0.8094
same,pos|lfc,gene C1D,−1.3624
same,pos|lfc,gene C16orf72,−2.2251
same,pos|lfc,gene CABIN1,−0.7818
same,pos|lfc,gene COPS6,−1.1267
same,pos|lfc,gene CS,−1.0352
same,pos|lfc,gene DARS2,−1.095
same,pos|lfc,gene DCLRE1B,−0.6801
same,pos|lfc,gene DDX49,−2.1703
same,pos|lfc,gene DYNC1H1,−1.3605
same,pos|lfc,gene DYNLRB1,−1.1311
same,pos|lfc,gene EIF2S1,−1.3093
same,pos|lfc,gene EIF2S2,−1.5347
same,pos|lfc,gene EIF5AL1,−0.8423
same,pos|lfc,gene EIF5B,−1.1819
same,pos|lfc,gene FANCA,−0.6873
same,pos|lfc,gene FANCG,−0.7949
same,pos|lfc,gene FNTB,−0.9877
same,pos|lfc,gene GCN1L1,−0.5542
same,pos|lfc,gene GRWD1,−0.9019
same,pos|lfc,gene GTPBP8,−1.0746
same,pos|lfc,gene HNRNPL,−1.1529
same,pos|lfc,gene HNRNPR,−0.5338
same,pos|lfc,gene KIAA1429,−1.1326
same,pos|lfc,gene LIMS1,−0.8407
same,pos|lfc,gene MMGT1,−0.748
same,pos|lfc,gene MRPL54,−0.8393
same,pos|lfc,gene NDUFB2,−0.8331
same,pos|lfc,gene NDUFC1,−0.9001
same,pos|lfc,gene NOP16,−1.0035
same,pos|lfc,gene PDCD7,−0.9939
same,pos|lfc,gene PDE12,−0.8248
same,pos|lfc,gene PEAR1,−0.6471
same,pos|lfc,gene POLD3,−1.3598
same,pos|lfc,gene POLR1C,−0.9691
same,pos|lfc,gene POLR2F,−1.9506
same,pos|lfc,gene PPHLN1,−0.829
same,pos|lfc,gene PPOX,−0.7508
same,pos|lfc,gene PWP2,−1.0599
same,pos|lfc,gene RIMBP2,−0.4894
same,pos|lfc,gene RMND1,−0.9991
same,pos|lfc,gene RPL3,−1.3237
same,pos|lfc,gene RPS19,−2.0213
same,pos|lfc,gene SEZ6,−0.6228
same,pos|lfc,gene SLC2A1,−0.9368
same,pos|lfc,gene SMC3,−1.7209
same,pos|lfc,gene SMC6,−1.1456
same,pos|lfc,gene SMG5,−1.2307
same,pos|lfc,gene SNRNP40,−1.1024
same,pos|lfc,gene TEX10,−1.3169
same,pos|lfc,gene TIFAB,−0.6891
same,pos|lfc,gene TOMM22,−0.8272
same,pos|lfc,gene TRAPPC4,−1.0187
same,pos|lfc,gene TTI2,−0.8554
same,pos|lfc,gene USP10,−0.902
same,pos|lfc,gene WDR12,−1.1622
same,pos|lfc,gene WDR92,−1.2556
same,pos|lfc,gene ZNHIT6,−1.4893

# Source: patent publication US20250082648A1, “COMPOSITIONS AND METHODS FOR ENHANCING KRAS INHIBITOR OR SHP2 INHIBITOR EFFICACY” (New York University, priority 2023, published 2025)
